{"source": "paper PMC12529164", "about": "“Design, Synthesis, Structure–Activity Relationships, and Preliminary Anticancer Properties of Menthol-Modified Coumarin Esters and 3,4-Dihydrocoumarin Derivatives” (ACS Omega, 2025)", "key": {"HaCaT": {"system": "HaCaT", "test": "MTT cytotoxicity assay, normal cells", "type": "cell-based", "settings": "HaCaT, 72 h, human immortal keratinocytes (normal cells)", "method": "The human primary (SW480) and metastatic (SW620) colon cancer, metastatic prostate cancer (PC3), breast adenocarcinoma (MDA-MB-231) and human immortal keratinocyte (HaCaT) cell lines were recruited from the American Type Culture Collection (ATCC). The cells were cultured in the recommended medium according to protocols (RPMI 1640 for PC3, MEM for SW480 and SW620, as well as DMEM for MDA-MB-231 and HaCaT cells) with addition of 10% FBS, penicillin (100 U/mL), and streptomycin (100 μg/mL) and cultured in 37 °C/5% CO2 in a humidified incubator. Then, the cells were passaged at a confluence of 80–90% by a treatment with 0.25% trypsin (Gibco Life Technologies) and used for studies.\nThey were added to 96-well plates with seeded normal and cancer cells (1 × 10^4 cells per well) and incubated for 72 h. MTT analysis was performed according to a previous study."}, "IL-6 in HaCaT cells": {"system": "IL-6 in HaCaT cells", "test": "Interleukin-6 ELISA", "type": "cell-based, human", "settings": "compound at IC50, 72 h", "method": "(§1) The concentration of Interleukin-6 (IL-6) was measured in cell culture supernatant using Interleukin IL-6 High Sensitivity ELISA kit (Diaclon SAS, Besancon Cedex, France). Cells (1 × 10^5 cells/well) were seeded in 12-well plates with medium for 24 h. […] After this incubation, the supernatants were collected and 100 μL of supernatant samples, control solutions and blank were added to precoated ELISA plate with the preceding plotting of the standard curve. Then 50 μL of diluted biotinylated antihuman interleukin-6 antibody was added and incubated at room temperature for 3 h. Afterward, the plate was washed three times and 100 μL streptavidin-HRP solution was added to each well. After 30 min incubation, the plate was washed again three times and 100 μL of tetramethylbenzidine (TMB) solution was added to each well. The plate was incubated for 15 min in the dark. The reaction was stopped by adding 100 μL of H2SO4 solution. The absorbance was estimated using a spectrophotometer at 450 nm (Microplate Spectrophotometer Thermo Scientific Multiskan GO)."}, "IL-6 in PC3 cells": {"system": "IL-6 in PC3 cells", "test": "Interleukin-6 ELISA", "type": "cell-based, human", "settings": "PC3, compound at IC50, 72 h", "method": "as §1"}, "IL-6 in SW480 cells": {"system": "IL-6 in SW480 cells", "test": "Interleukin-6 ELISA", "type": "cell-based, human", "settings": "SW480, compound at IC50, 72 h", "method": "as §1"}, "IL-6 in SW620 cells": {"system": "IL-6 in SW620 cells", "test": "Interleukin-6 ELISA", "type": "cell-based, human", "settings": "SW620, compound at IC50, 72 h", "method": "as §1"}}, "data": [{"smiles": "CC(C)[C@@H]1CC[C@@H](C)C[C@H]1OC(=O)C1C(=O)Oc2ccccc2C1P(=O)(c1ccccc1)c1ccccc1", "note": "(mixture of isomers) [Compound 4a, (1R,2S,5R)-2-Isopropyl-5-methylcyclohexyl-4-(diphenylphosphoryl)-2-oxochromane-3-carboxylate]", "values": [{"measurement": "IC50", "setting": "HaCaT", "result": "15.1 ± 2.76", "unit": "µM"}, {"measurement": "IL-6 concentration", "setting": "IL-6 in HaCaT cells; ELISA", "result": "7.5 ± 1.13", "unit": "pg/mL"}, {"measurement": "reduction of IL-6 concentration", "setting": "IL-6 in HaCaT cells; vs control", "result": 26.5, "unit": "%"}, {"measurement": "IL-6 concentration", "setting": "IL-6 in PC3 cells; ELISA", "result": "0.6 ± 0.09", "unit": "pg/mL"}, {"measurement": "reduction of IL-6 level", "setting": "IL-6 in PC3 cells; vs control", "result": 87.2, "unit": "%"}, {"measurement": "IL-6 concentration", "setting": "IL-6 in SW480 cells; ELISA", "result": "0.9 ± 0.33", "unit": "pg/mL"}, {"measurement": "reduction of IL-6 level", "setting": "IL-6 in SW480 cells; vs control", "result": 77.6, "unit": "%"}, {"measurement": "IL-6 concentration", "setting": "IL-6 in SW620 cells; ELISA", "result": "0.9 ± 0.27", "unit": "pg/mL"}, {"measurement": "reduction of IL-6 level", "setting": "IL-6 in SW620 cells; vs control", "result": 69.1, "unit": "%"}]}]}
